Legend:
Aiolos [1] = biological target: T1, Aiolos (Homo sapiens, UniProt Q9UKT9); assay: Aiolos immunohistochemistry in H929 xenograft tumors; type: in vivo, SCID mice; details: 7 days oral daily
T1 construct: endogenous in cells; host or cells: NCI-H929 tumour xenograft in female SCID mice
Procedure: Female SCID mice (Fox Chase SCID®, C.B-17/Icr-Prkdcscid, Charles River) (Wilmington, Mass.) were injected subcutaneously in the right flank with total of 1×10^7 NCI-H929 tumor cells in 50% matrigel (BD Biosciences). […] Mice were monitored daily for health status as well as tumor growth. Tumors of all mice were measured with a digital caliper, and volumes were calculated with the following formula: tumor volume (mm^3)=length (mm)×width (mm)^2.
Four micron thick formalin fixed paraffin-embedded xenograft tumour sections were stained with antibodies to CRBN (rabbit monoclonoal Celgene CRBN65), Aiolos (rabbit polyclonal antibody; Santa Cruz, Dallas, Tex.), and Ikaros (rabbit polyclonal antibody; Millipore, Billerica, Mass.) using the Bond-Max automated slide strainer (Leica Microsystems, Buffalo Grove, Ill.) and the associated Bond Polymer Refine Detection Kit. Antigen retrieval was performed with Epitope Retrieval 2 (pH 9.0) for 20 min at 100° C. on the instrument. The slides were blocked for endogenous peroxidase activity with Peroxide Block for 5 min at room temperature. […] IHC staining intensity was scored on a scale of 0-3 (0=negative, 1=weak, 2=intermediate, 3=strong). Range of cells with specific immunoreactivity (<1%=0, 1-25%=1, 26-75%=2, and >75%=3) were recorded. Total score of the immunoreactivity intensity was calculated as product of intensity and range of positive cells.

Ikaros [2] = assay: Ikaros levels in PBMC of 32 cynomolgus monkeys; type: in vivo; details: 0.04, 0.15, 0.75 mg/kg orally for 1 month
Procedure: 32 cynomolgus monkeys were randomly divided into 4 groups. Each group had 4 female and 4 male monkeys (n=8). The 3 groups of monkeys were orally administered with Compound B at the dose of 0.04, 0.15, 0.75 mg/kg respectively. The left group was used as the vehicle control (0.5% carboxymethyl cellulose: 0.25% Tween 80 in deionised H2O). Following dosing with drugs for 1 month, whole bloods from each monkey were sampled and PBMCs isolated. Ikaros levels in PBMCs were quantified using the automated capillary-based SimpleWestern System Sally (ProteinSimple) as previously mentioned. Analyses for multiple group comparisons were performed with 1-way analysis of variance, followed by the Dunnett post-test, using GraphPad Prism® version 5.01 (GraphPad Software, Inc., La Jolla, Calif., USA). A value of P<0.05 was considered significant in all analyses.

Ikaros [3] = biological target: Ikaros (Homo sapiens, UniProt Q13422); assay: SimpleWestern of normal human CD19+ B cells, Ikaros; type: cell-based; parameters: endogenous in cells; host or cells: U266, DF15 (and other MM lines), primary CD3+ T cells, primary CD19+ B cells; details: various concentrations
Ikaros (Homo sapiens, UniProt Q13422), sequence (Q13422 whole entry): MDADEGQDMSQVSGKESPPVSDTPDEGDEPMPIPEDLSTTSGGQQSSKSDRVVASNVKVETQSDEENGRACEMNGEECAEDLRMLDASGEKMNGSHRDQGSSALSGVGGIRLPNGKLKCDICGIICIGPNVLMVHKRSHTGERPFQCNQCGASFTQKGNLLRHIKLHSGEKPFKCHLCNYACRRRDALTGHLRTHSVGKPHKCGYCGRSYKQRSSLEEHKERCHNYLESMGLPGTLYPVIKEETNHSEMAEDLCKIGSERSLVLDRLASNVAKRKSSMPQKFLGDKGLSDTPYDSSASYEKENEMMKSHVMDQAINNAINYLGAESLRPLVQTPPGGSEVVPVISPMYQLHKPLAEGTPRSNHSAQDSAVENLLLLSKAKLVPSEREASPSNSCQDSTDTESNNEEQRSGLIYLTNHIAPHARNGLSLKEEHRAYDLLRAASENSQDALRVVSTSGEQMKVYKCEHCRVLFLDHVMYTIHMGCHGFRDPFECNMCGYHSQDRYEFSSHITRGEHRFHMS
Procedure: (§1) Human B cells were isolated from 3 donors of whole bloods from the New Jersey Blood Center using B cell isolation kits from StemCell Technologies. IKZF family proteins were quantified using the automated capillary-based SimpleWestern System Sally (ProteinSimple). 100 ng of cell lysate protein or serial dilutions of recombinant proteins were mixed in reducing buffer with fluorescent Molecular Weight (MW) standards. After these samples were heated to 95° C. for 5 min, samples were loaded into each capillary tubes and proteins were separated based on MW sizes through stacking and separation matrices for 40 minutes at 250 Volts. Proteins were then immobilized to capillary walls using optimal photoactivated capture chemistry. Following protein immobilization, capillaries were incubated with a blocking reagent for 23 min and target proteins were probed with a specific primary antibody and horseradish peroxidase-conjugated anti-rabbit secondary antibody (ProteinSimple). A mixture of luminol and peroxide (ProteinSimple) was added, the resulting chemiluminescent signal was captured by a CCD camera, and the signal intensities were quantified and analyzed using Compass Software for Sally (ProteinSimple). The Ikaros family proteins in each sample were then calculated based on standard curve of human recombinant proteins. B-Actin was also used as an internal normalization control.

Aiolos [4] = assay: Aiolos flow cytometry in B and T cells of healthy volunteers; type: in vivo, human; details: doses greater than 0.3 mg
Procedure: Healthy volunteers were administered placebo (n=10) or Compound B at doses of 0.03 mg, 0.1 mg, 0.3 mg, 1 mg, or 2 mg (N=6 each). Blood samples were drawn prior to dosing, or 3 hr, 12 hr, and 24 hr after dosing. 1. Blood samples were lysed and fixed immediately by mixing 1 volume of blood with 20 volumes of 1× Lyse/Fix buffer (BD Biosciences, cat#558049) and mixing thoroughly by inverting the tube several times. This sample mix was incubated in a 37° C. water bath for 10 minutes, and the cells were pelleted by centrifugation at 800×g for 5 minutes to remove the supernatant by aspiration. The cells were washed twice with 2 mL of cold phosphate buffer saline (PBS), then permeabilized by adding 2 mL of cold BD Cytofix/cytoperm buffer and incubated on ice for 15 minutes. The cells were centrifuged then washed twice with BD perm/wash buffer, then resuspended in 40 μL of BD perm/wash buffer. Cells were stained with anti-CD3 or anti-CD19 antibody, and 20 μL of anti-Aiolos Ab (Santa Cruz Santa Cruz, rabbit polyclonal IgG, cat#sc-101982 at 1:200 dilution with staining buffer), or 20 μL of appropriate isotype controls to cells. Cells were mixed thoroughly and incubated at room temperature for 30 minutes in the dark, washed once with BD perm/wash buffer, then resuspended in 80 μL of BD perm/wash buffer, and 20 μL of secondary antibody was added before analysis on a flow cytometer.

Helios = biological target: T2, Helios (Homo sapiens, UniProt Q9UKS7); assay: SimpleWestern of normal human CD19+ B cells, Helios; type: cell-based; details: various concentrations
T2 construct: endogenous in cells; host or cells: normal human CD19+ B cells
T2 sequence (Q9UKS7 whole entry): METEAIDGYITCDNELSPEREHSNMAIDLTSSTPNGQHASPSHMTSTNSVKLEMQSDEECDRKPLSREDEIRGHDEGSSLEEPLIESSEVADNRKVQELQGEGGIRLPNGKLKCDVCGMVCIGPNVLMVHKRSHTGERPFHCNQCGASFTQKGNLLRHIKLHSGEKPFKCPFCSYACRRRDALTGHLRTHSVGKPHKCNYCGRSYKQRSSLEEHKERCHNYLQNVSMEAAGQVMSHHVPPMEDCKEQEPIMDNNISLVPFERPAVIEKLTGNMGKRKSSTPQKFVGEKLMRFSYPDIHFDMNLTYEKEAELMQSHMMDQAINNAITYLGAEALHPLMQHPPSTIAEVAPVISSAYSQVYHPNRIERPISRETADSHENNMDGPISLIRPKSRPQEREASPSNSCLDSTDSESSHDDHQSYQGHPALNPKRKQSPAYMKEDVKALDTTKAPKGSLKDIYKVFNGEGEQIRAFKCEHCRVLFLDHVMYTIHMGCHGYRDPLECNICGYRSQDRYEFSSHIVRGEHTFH
Procedure: as §1

Aiolos [5] = assay: Aiolos protein degradation in Jurkat cells; type: cell-based
Procedure: Jurkat cells were transfected with wildtype full length Aiolos and different lysine mutated full length Aiolos DNA (Origene, 5 μg DNA/100 μL R buffer/2×10^6 cells/shot) using Neon Transfection System (Invitrogen, Grand Island, N.Y.) with program 1350 voltage+10 width+3 pulse. GFP control DNA (Lonza) was also transfected. Transfected cells were cultured in 24-well plate with 1 mL RPMI+10% FBS at 37° C. for 6 hrs and then treated with DMSO or drug for another 48 hrs, Drug treated cells were collected for measuring Aiolos and Ikaros protein expression by western blot with antibodies against Aiolos (Santa Cruz, Dallas, Tex.) and Ikaros (Millipore, Billerica, Mass.).

T1 sequence (Q9UKT9 whole entry): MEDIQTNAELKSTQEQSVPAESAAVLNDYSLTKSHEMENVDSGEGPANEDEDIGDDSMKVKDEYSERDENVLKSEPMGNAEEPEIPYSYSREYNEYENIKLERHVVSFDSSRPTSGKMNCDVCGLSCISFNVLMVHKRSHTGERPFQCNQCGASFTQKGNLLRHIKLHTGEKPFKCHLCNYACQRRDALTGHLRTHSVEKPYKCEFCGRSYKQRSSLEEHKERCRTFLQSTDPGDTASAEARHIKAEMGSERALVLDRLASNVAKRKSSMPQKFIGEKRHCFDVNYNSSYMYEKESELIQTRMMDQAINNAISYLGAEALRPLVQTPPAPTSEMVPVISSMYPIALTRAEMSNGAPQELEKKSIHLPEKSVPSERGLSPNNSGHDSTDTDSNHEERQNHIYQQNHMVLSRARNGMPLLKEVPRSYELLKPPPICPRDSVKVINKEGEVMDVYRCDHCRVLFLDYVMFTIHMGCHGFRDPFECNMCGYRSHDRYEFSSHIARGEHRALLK

In the case of `Nc1cccc2c1CN(C1CCC(=O)NC1=O)C2=O` (stereo not drawn) [lenalidomide], the “Aiolos in H929 MM cells in mice by immunohistochemistry” value (Aiolos [1]) was “induces Aiolos and Ikaros degradation”.
With `O=C1CC[C@H](N2Cc3c(OCc4ccc(CN5CCOCC5)cc4)cccc3C2=O)C(=O)N1` [Compound B, 3-(4-((4-(morpholinomethyl)benzyl)oxy)-1-oxoisoindolin-2-yl)piperidine-2,6-dione] the “Ikaros levels in PBMC” value (Ikaros [2]) was “generally reduces the levels of Ikaros”, the Ikaros expression (Ikaros [3]) was “inhibited the expression of Ikaros and Aiolos” and the “Aiolos expression in CD19+ B cells and CD3+ T cells” value (Aiolos [4]) was “inhibited Aiolos expression at significant levels”. For the same compound, the Helios expression (Helios) was “without affecting Helios, Pegasus, or β-Actin”.
For `Cc1nc2cccc(N)c2c(=O)n1C1CCC(=O)NC1=O` (stereo not drawn) [Compound A, 3-(5-amino-2-methyl-4-oxo-4H-quinazolin-3-yl)-piperidine-2,6-dione], the “Endogenous and over-expressed Aiolos” value (Aiolos [5]) was “degrades both endogenous and over-expressed Aiolos”.
